Results from patent US5006540A, “Substituted 3-aminosydnonimines, processes for their preparation and their use” (Cassella Aktiengesellschaft, priority 1988, dated 1991).
Structures can show the parent of a compound that is named as a salt.

Tested on: spiral strips of the arteria pulmonalis of the guinea pig
Experiment: Relaxing action on K+-depolarized, CaCl2-contracted spiral strips of guinea pig arteria pulmonalis (modified method of Godfraind and Kaba and of Schumann et al.)
Conditions: Cavia porcellus; depolarized with 40 mmol/l potassium in calcium-free Tyrode solution; contraction by 0.5 mmol/l CaCl2; cumulative addition; mean value of 4 to 6 strips of vessel; read-out: IC50: concentration of test substance which inhibits the contraction by 50%
Excerpt: The pharmacological action of the compound of the formula I has been determined by a modified method of Godfraind and Kaba (Arch. Int. Pharmacodyn. Ther. 196, (Suppl) 35 to 49, 1972) and of Schumann et al. (Naunyn-Schmiedeberg's Arch. Pharmacol. 289, 409 to 418, 1975). In this method, spiral strips of the arteria pulmonalis of the guinea pig are depolarized with 40 mmol/l of potassium after equilibration in calcium-free Tyrode solution. Addition of 0.5 mmol/l of CaCl2 then induces a contraction. The relaxing action of the test substance is determined by cumulative addition of concentrations graduated in 1/2 log 10. The concentration of test substance which inhibits the contraction by 50% (=IC50, mol/l) is determined from the concentration/ effect curve (abscissa: -log mol/l of test substance, ordinate: % inhibition of the maximum contraction, mean value of 4 to 6 strips of vessel). The IC50 values thus obtained are stated in the following table.

| SMILES | IC50 [nM] |
| --- | --- |
| N=c1c[n+](NCCO)[n-]o1 [Example 1a, 3-(2-Hydroxyethylamino)-sydnonimine hydrochloride] | 2000 |
| CCN[n+]1cc(=N)o[n-]1 [Example 2, 3-Ethylamino-sydnonimine hydrochloride] | 2000 |
| N=c1c[n+](NC2CCCCC2)[n-]o1 [Example 4e, 3-Cyclohexylamino-sydnonimine hydrochloride] | 2000 |
| N=c1c[n+](NC2CCCCC2O)[n-]o1 (centres unmarked) [Example 5b, 3-(2-Hydroxycyclohexyl-amino)-sydnonimine hydrochloride] | 1000 |
| CCOC(=O)[N-]c1cn(N2CCOCC2)n[o+]1 [Molsidomine, N-ethoxycarbonyl-3-morpholino-sydnonimine, reference compound] | > 100000 |
